Test results published in ChEMBL document CHEMBL1155995, “Pyrrole[2,3-d]azepino compounds as agonists of the farnesoid X receptor (FXR)” (Bioorg Med Chem Lett, 2009).
In brackets after ≈: the same amount, converted by molar mass.

Target: T1, Bile acid receptor (Homo sapiens, UniProt Q96RI1)
T1 sequence (Q96RI1 whole entry): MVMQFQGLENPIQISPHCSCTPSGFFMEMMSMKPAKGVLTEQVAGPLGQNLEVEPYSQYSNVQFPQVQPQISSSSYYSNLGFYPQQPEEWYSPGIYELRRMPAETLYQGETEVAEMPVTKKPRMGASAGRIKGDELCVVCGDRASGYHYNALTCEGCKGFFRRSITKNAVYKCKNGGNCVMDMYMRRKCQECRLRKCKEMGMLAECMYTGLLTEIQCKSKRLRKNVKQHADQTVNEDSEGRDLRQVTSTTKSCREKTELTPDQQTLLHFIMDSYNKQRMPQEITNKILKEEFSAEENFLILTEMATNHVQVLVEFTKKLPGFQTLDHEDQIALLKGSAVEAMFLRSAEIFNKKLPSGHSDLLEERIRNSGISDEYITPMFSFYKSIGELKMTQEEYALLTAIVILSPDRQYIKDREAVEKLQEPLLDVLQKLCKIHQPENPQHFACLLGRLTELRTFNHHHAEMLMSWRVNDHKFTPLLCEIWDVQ
Conditions: not given

EC50	Structure (SMILES)
6.3 nM	CC(C)OC(=O)C1=CN(C(=O)c2ccc(F)c(F)c2)CC(C)(C)c2cc(C#N)[nH]c21
8.5 nM	CC(C)OC(=O)C1=CN(C(=O)c2cccc(C(F)(F)F)c2)CC(C)(C)c2cc(C#N)[nH]c21
16 nM	CC(C)OC(=O)C1=CN(C(=O)c2cccs2)CC(C)(C)c2cc(C#N)[nH]c21

System: not listed separately
Experiment: Aqueous solubility at pH 7.4
Conditions: aqueous

solubility	Structure (SMILES)
> 0.1 mg/mL	CC(C)OC(=O)C1CN(C(=O)c2ccc(F)cc2)CC(C)(C)c2cc(C#N)[nH]c21 (stereo not given)
0.017 mg/mL (≈ 41.1 µM)	CC(C)OC(=O)C1CN(C(=O)c2cccc(Cl)c2)CC(C)(C)c2cc(C#N)[nH]c21 (stereo not given)
0.031 mg/mL (≈ 74.6 µM)	CC(C)OC(=O)C1CN(C(=O)c2ccc(F)c(F)c2)CC(C)(C)c2cc(C#N)[nH]c21 (stereo not given)
> 0.1 mg/mL	CC(C)OC(=O)C1CN(C(=O)C2CCOCC2)CC(C)(C)c2cc(C#N)[nH]c21 (stereo not given)
> 0.1 mg/mL	CC(C)OC(=O)C1CN(C(=O)C2CCCCC2)CC(C)(C)c2cc(C#N)[nH]c21 (stereo not given)
0.021 mg/mL (≈ 51.9 µM)	CC(C)OC(=O)C1CN(C(=O)c2ccc(C#N)cc2)CC(C)(C)c2cc(C#N)[nH]c21 (stereo not given)
> 0.1 mg/mL	CC(C)OC(=O)C1CN(C(=O)c2cccc(F)c2)CC(C)(C)c2cc(C#N)[nH]c21 (stereo not given)
0.005 mg/mL (≈ 12.1 µM)	CC(C)OC(=O)C1CN(C(=O)c2ccc(Cl)cc2)CC(C)(C)c2cc(C#N)[nH]c21 (stereo not given)

Same assay, conditions: buffer

Structure (SMILES)	solubility
CC(C)OC(=O)C1=CN(C(=O)c2ccc(F)c(F)c2)CC(C)(C)c2cc(C#N)[nH]c21	Insoluble(BLD)
CC(C)OC(=O)C1=CN(C(=O)c2ccc(C#N)cc2)CC(C)(C)c2cc(C#N)[nH]c21	Insoluble(BLD)
CC(C)OC(=O)C1=CN(C(=O)c2cccc(C(F)(F)F)c2)CC(C)(C)c2cc(C#N)[nH]c21	Insoluble(BLD)
CC(C)OC(=O)C1=CN(C(=O)c2ccc(F)cc2)CC(C)(C)c2cc(C#N)[nH]c21	Insoluble(BLD)
CC(C)OC(=O)C1=CN(C(=O)c2cccc(Cl)c2)CC(C)(C)c2cc(C#N)[nH]c21	Insoluble(BLD)
CC(C)OC(=O)C1=CN(C(=O)c2cccc(F)c2)CC(C)(C)c2cc(C#N)[nH]c21	Insoluble(BLD)
CC(C)OC(=O)C1=CN(C(=O)c2ccc(F)c(F)c2)CC(C)(C)c2c1[nH]c1ccccc21 [TUROFEXORATE ISOPROPYL]	Insoluble(BLD)

Now from value to compound:

solubility	Structure (SMILES)
Insoluble(BLD)	CC(C)OC(=O)C1=CN(C(=O)C2CCCCC2)CC(C)(C)c2cc(C#N)[nH]c21
Insoluble(BLD)	CC(C)OC(=O)C1=CN(C(=O)c2cccs2)CC(C)(C)c2cc(C#N)[nH]c21
